Reference: EP4786454A1, “HETEROARYL DERIVATIVE AND USE THEREOF” (priority 2023, dated 2025)

Tests used:
hKCNQ2/3 = molecular target: T1, hKCNQ2/3 (Homo sapiens, UniProt O43525+O43526); assay: hKCNQ2/3 thallium flux assay (FLIPR); format: cell-based; details: agonistic effect, CHO cell line stably expressing hKCNQ2/3
T1 construct: expressed in transfected cells; host or cells: CHO
Excerpt: The present disclosure also provides the following assay methods: • Assay method 1: hKCNQ2/3 thallium flux assay • Purpose of the assay: To determine the in vitro concentration-response relationship of the compounds in a CHO cell line stably expressing hKCNQ2/3 using FLIPR thallium flux assay.
CHO cells stably transfected with hKCNQ2/3.
The cell line was passaged three times a week at a split ratio of 1:2 to 1:3. When the cells grew to a confluence degree of greater than 80% in a T-75 cell flask, they were digested with 0.25% trypsin-EDTA solution for about 1 minute, and then the cells were transferred from the cell flask for passage. According to the split ratio, the cells were transferred to another T-75 cell flask containing complete cell growth culture medium. Note: In order to maintain the logarithmic growth of cells, the cell growth should be maintained in a subconfluent monolayer state. The cells were passaged every 2 to 3 days according to the cell doubling time.
• (1) Day 1, cell preparation: The cells were digested according to the above method, and the cell density and viability were determined using Cell Countess. The volume of the single-cell suspension was adjusted with complete cell growth culture medium. Then, the hKCNQ2/3_CHO cells were seeded at a density of approximately 20,000 cells/well (30 µL/well) into a PDL-precoated 384-well plate. Then, the plate was incubated at 37 °C with 5% CO2 humidified air in an incubator overnight. • (2) Day 2, compound preparation: A test compound was diluted to a storage concentration with dimethyl sulfoxide (DMSO), and stored in a freezer at -20 °C. A compound addition program was set up on the ECHO liquid workstation, and the compound was added to the plate using the ECHO liquid workstation. A positive control was prepared using Retigabine (RTG) with a maximum concentration of 100 µM, which was subjected to a 3-fold dilution, resulting in a total of 9 doses constituting the plate map required for plating. Prepare the plate using a stimulation buffer containing 5 mM K^+ and 1 mM Tl^+. Note: 1) K2SO4 and Tl2SO4 were prepared in a 1× chloride-free buffer. When different voltage-gated potassium channels were involved, the concentrations of Tl^+ and K^+ were needed to be adjusted. The concentration of Tl^+ was approximately 0.5 mM to 5 mM, and the concentration of K^+ was approximately 5 mM to 30 mM. 2) Each 1 mM solution of K2SO4 and Tl2SO4 contained 2 mM K^+ and Tl^+. The final concentration should be calculated based on the ion concentrations. 3) TlCl was easily precipitated and a chloride-free buffer was required. • (3) Day 2, assay testing: When the cells reached the confluence degree, the cell analysis plate was taken out from the incubator. The assay buffer was prepared and the Tl^+ dye (Molecular Devices # R8222) was diluted. The culture medium was discarded using the liquid workstation Bravo and 25 µL of Tl^+ dye was added to each well. The plate was incubated for 1 hour, and then the cell analysis plate, composite plate, and FLIPR tip were placed in FLIPR^TETRA (Molecular Devices, USA) for FLIPR assay. The tip was set up, and then the baseline was read for 60 seconds. Then, 12.5 µL from the composite plate (3×) was added to the cell analysis plate, and the data were recorded for at least 5 minutes at the same time. • (4) Data processing: The maximum signal was generated with FLIPR software. Excel (2013) and Prism 6.01 were used for data analysis. The data quality control was performed with S/B > 2.00 and Z-factor > 0.50. IC50 or EC50 was defined as the midline between the lowest and the highest plateaus, and it was calculated using a four-parameter logistic model with Prism 6.01.
Purpose of the assay: To determine the in vitro concentration-response relationship of the compounds in a CHO cell line stably expressing hKCNQ2/3 using FLIPR thallium flux assay. […]

[1] = Plasma protein binding rate, equilibrium dialysis (monkey plasma); format: in vitro ADME, cynomolgus monkeys; details: c (cynomolgus monkey plasma), dialysis 4 hours at 37 °C, read-out: Unbound PPB%
Description: The protein binding rates of the compounds in the plasma of CD-1 mice, Sprague-Dawley rats, beagle dogs, cynomolgus monkeys, and human were determined using equilibrium dialysis method.
Commercially available plasma, dual-layer dialysis membrane, and equilibrium dialysis device.
The dual-layer dialysis membrane was soaked in ultrapure water for about 1 hour, removed and then divided into two parts. It was then soaked in an ethanol:water (20:80, v:v) solution for 20 minutes or placed at 2 to 8 °C, and it was valid for 1 month. Before starting the assay, the dialysis membrane was rinsed twice with ultrapure water and then soaked in ultrapure water for another 20 minutes for later use.
On the day of assay, the frozen plasma of CD-1 mice, Sprague-Dawley rats, beagle dogs, cynomolgus monkeys, and human was thawed in running cold tap water. After the plasma was completely thawed, the plasma was centrifuged at 3220×g for 5 minutes, and the suspended substances and precipitates in it were removed. The pH of the plasma was determined. The plasma with a pH in the range of 7.4 ± 0.1 was directly used, or the plasma with a pH in the range of 7.4 ± 0.1 after an adjustment with 1% phosphoric acid or 1M sodium hydroxide was used.
Preparation process of plasma samples: 597 µL of blank plasma from each of the above five species was taken, respectively. 3 µL of a compound or warfarin working solution was added, and the mixture was mixed thoroughly to give a plasma sample with a compound concentration of 2 µM and a warfarin concentration of 2 µM (n=1). The concentration of the organic phase DMSO was 0.5%. The sample was thoroughly mixed before proceeding to the next step.
Preparation process of T0 samples: 50 µL of a plasma sample containing the compound and warfarin was transferred to a sample receiving plate (n=3), and 50 µL of blank PBS was immediately added. Then, 500 µL of stop solution was added to the T0 sample of the compound and warfarin, and the mixture was stored at 2 to 8 °C, waiting to be processed later together with other dialysis-processed samples.
Dialysis process of plasma samples: 100 µL of a compound (2 µM) and warfarin (2 µM) plasma sample was added to the donor of each dialysis well (n=3), and 100 µL of blank PBS was added to the corresponding receiver of the dialysis well. The dialysis plate was placed in a 5% CO2 incubator, and incubated at 37 °C with shaking at approximately 100 rpm for 4 hours.
After the dialysis was completed, 50 µL of dialysis-processed PBS sample and dialysis-processed plasma sample (n=3) were transferred to a new 96-well plate (sample receiving plate). The corresponding volume of the corresponding blank plasma or PBS was added to the sample to make the final volume of each sample well 100 µL, with a plasma to PBS volume ratio of 1:1. All the samples were analyzed by LC-MS/MS after protein precipitation.
The formulas for calculating the unbound fraction (%Unbound), bound fraction (%Bound) and recovery fraction (%Recovery) of a compound are as follows: %Unbound = 100 ×F / T %Bound = 100 - %Unbound %Recovery = 100 ×(F + T)/ T0 wherein F is the concentration of the compound at the receiver of dialysis; T is the concentration of the compound at the supply end of dialysis; and T0 is the concentration of the compound in the plasma at time zero.

T1 sequence (O43525 whole entry): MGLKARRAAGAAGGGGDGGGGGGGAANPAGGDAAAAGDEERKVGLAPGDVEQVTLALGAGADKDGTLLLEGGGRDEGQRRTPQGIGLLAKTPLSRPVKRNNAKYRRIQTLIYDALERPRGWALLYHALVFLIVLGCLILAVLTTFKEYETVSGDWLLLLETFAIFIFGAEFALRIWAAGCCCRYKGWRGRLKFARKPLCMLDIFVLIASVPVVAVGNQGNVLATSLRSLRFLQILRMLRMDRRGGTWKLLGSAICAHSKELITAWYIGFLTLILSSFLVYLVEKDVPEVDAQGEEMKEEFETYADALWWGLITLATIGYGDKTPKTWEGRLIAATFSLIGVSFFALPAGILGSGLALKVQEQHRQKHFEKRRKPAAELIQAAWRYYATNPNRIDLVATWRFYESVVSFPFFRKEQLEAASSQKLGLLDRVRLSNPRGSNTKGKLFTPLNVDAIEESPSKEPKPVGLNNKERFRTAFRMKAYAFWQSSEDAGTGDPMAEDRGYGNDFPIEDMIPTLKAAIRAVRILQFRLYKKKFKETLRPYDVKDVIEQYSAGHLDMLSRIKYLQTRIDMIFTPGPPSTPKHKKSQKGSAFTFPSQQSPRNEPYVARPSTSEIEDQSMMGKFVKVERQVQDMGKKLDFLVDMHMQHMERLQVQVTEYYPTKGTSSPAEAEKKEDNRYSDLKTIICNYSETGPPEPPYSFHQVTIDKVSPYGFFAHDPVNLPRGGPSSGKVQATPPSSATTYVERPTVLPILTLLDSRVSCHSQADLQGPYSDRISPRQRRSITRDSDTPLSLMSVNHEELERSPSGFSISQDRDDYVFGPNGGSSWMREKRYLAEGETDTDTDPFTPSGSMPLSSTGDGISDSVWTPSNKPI
T1 sequence (O43526 whole entry): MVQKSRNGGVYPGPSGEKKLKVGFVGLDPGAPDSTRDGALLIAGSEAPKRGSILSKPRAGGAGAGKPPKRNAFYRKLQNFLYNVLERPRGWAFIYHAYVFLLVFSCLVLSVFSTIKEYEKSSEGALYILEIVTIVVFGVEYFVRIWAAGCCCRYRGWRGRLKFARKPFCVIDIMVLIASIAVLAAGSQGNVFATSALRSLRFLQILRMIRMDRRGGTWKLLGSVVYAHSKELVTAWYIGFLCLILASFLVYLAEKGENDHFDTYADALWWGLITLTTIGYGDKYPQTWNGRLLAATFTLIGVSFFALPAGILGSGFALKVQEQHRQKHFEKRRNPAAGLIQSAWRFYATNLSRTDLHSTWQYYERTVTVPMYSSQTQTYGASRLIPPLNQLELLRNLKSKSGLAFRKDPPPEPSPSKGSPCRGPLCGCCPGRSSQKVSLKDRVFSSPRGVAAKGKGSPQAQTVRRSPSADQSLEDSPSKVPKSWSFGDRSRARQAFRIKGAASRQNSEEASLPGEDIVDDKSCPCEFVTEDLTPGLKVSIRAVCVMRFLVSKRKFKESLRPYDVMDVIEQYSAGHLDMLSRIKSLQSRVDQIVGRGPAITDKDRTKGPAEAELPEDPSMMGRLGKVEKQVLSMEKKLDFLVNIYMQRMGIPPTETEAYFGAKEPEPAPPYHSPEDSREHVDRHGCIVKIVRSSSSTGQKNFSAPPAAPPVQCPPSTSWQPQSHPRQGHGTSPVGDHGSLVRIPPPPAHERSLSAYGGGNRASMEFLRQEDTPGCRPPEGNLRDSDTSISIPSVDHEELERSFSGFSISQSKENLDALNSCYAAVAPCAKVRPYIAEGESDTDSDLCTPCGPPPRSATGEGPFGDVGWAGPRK

Question: Which EC50 (hKCNQ2/3) does the source give for `CC(C)(C)CC(=O)Nc1nc2c(F)cc(C#N)cn2c1C1=CCCC1` [Compound 3] here?
Answer: The EC50 was 0.48 µM.

Question: What about the fraction unbound at 4 h, 2 µM [1] of the same compound?
Answer: The fraction unbound at 4 h, 2 µM was 0.134.

Question: For `CC(C)(C)CC(=O)Nc1nc2c(F)cc(C#N)cn2c1-c1ccc(OC(F)(F)F)cc1` [Compound 1], which fraction unbound at 4 h, 2 µM [1] is on record?
Answer: The fraction unbound at 4 h, 2 µM was 0.072.

Question: Which results are given for `CC(C)(C)CC(=O)Nc1nc2c(F)cc(C#N)cn2c1C12CC(C1)C2` [Compound 5]?
Answer: EC50 (hKCNQ2/3): 0.2 µM; fraction unbound at 4 h, 2 µM [1]: 0.159

Question: For `CC(C)(C)CC(=O)Nc1nc2c(C(F)(F)F)cc(C#N)cn2c1C12CC(C1)C2` [Compound 6], which EC50 (hKCNQ2/3) is on record?
Answer: Its EC50 is 0.71 µM.
